The record followed here is EP0879051B9, “RATE-CONTROLLED TRANSDERMAL ADMINISTRATION OF RISPERIDONE” (JANSSEN PHARMACEUTICA N.V., priority 1995, dated 1996).

Each structure is given as a SMILES string.

A short description of the series: In vitro transdermal permeation of risperidone, two-compartment diffusion cell. Format: in vitro ADME, hairless rats. As to the method:
Experimental Part : In vitro study of the transdermal permeation of risperidone.
An in vitro model using a vertical, two-compartment diffusion cell assembly mounted with freshly excised full thickness abdominal skin of hairless rats (Iffa credo) was used in this study. […] The receptor solution in all experiments consisted of Hanks Balanced Salt Solution (Gibco BRL) with sodium azide). The skin permeation profile was followed for up to 50 h by sampling the receptor solution and assaying the drug concentration by measuring the radioactivity (Ready Safe, Beckmann-Wallac 1410LKB). The ratio of the cumulated quantities detected in the receptor compartment to the skin area (ng/cm^2) were plotted in function of the time and the flux of risperidone through the skin in the presence of various solvents and skin permeation enhancers was deduced from the linear part of the plotted results.

The mark [1] stands for this setting: Experiment 2: donor borate buffer pH 10, 0.1 M (900 µl/ml) + ethanol (95%; 100 µl/ml) + risperidone (100 µg/ml).
Where [2] appears, read: Experiment 4: donor propylene glycol + lauric acid (LA) 5%, risperidone 10 mg/ml.
The mark [3] stands for this setting: Experiment 4: donor propylene glycol + oleic acid (OA) 5%, risperidone 10 mg/ml.
Setting [4] is: donor propylene glycol, 0% enhancer, risperidone 10 mg/ml.

For the compound `Cc1nc2n(c(=O)c1CCN1CCC(c3noc4cc(F)ccc34)CC1)CCCC2` [risperidone, 3-[2-[4-(6-fluoro-1,2-benzisoxazol-3-yl)-1-piperidinyl]ethyl]-6,7,8,9-tetrahydro-2-methyl-4H-pyrido[1,2-a]pyrimidin-4-one], for the setting “Experiment 1: donor borate buffer pH 10, 0.1 M + risperidone at 40mg/ml”, the flux stood at 0.181 µg/cm^2.h. Under setting [1], the flux was 0.869 µg/cm^2.h and the latency period worked out at 13.9 h. Further, the “flux (1%)” value (Experiment 3: donor propylene glycol + eucalyptus oil 1%, risperidone 10 mg/ml) amounted to 4.54 µg/cm^2.h. Further, where the note is “Experiment 3: donor propylene glycol + eucalyptus oil 5%, risperidone 10 mg/ml”, the “latency period (5%)” value is 6.2 h. Further, the “flux (5%)” value (Experiment 3: donor propylene glycol + eucalyptus oil 5%, risperidone 10 mg/ml, very high flux probably due to skin damage) is recorded as 126.74 µg/cm^2.h. For the same compound, the “latency period (LA %)” value (Experiment 3: donor propylene glycol + eucalyptus oil (printed 'LA %'), risperidone 10 mg/ml) turned out to be 15.2 h. Under setting [2], the “flux (5% LA)” value turned out to be 15.39 µg/cm^2.h and the “latency period (5% LA)” value was found to be 4.3 h. Under setting [3], the “flux (5% OA)” value is 18.9 µg/cm^2.h and the “latency period (5% OA)” value came to 17 h. Besides, under setting [4], the “flux (0%)” value is recorded as 3.89 µg/cm^2.h and the “latency period (0%)” value came to 14.2 h.
